This experiment addresses T1, human CB2R (Homo sapiens, UniProt P34972).
T1 construct: host or cells: CHO cells
Put plainly: CB2R mediated modulation of cAMP synthesis. The format is cell-based. Particulars: qualitative statement; found 'through the use of the above described assays'; CHO cells expressing human CB2R, forskolin-stimulated cAMP. The method, then:
B. CB2R Mediated Modulation of cAMP Synthesis:
CHO cells expressing human CB2R (Euroscreen) were plated at a density of 5000 cells per well in 384 well plates and incubated overnight at 37° C. After removing the media, the cells were treated with test compounds diluted in stimulation buffer containing 1 mM IBMX, 0.25% BSA and 10 uM Forskolin. The assay was incubated for 30 minutes at 37° C. Cells were lysed and the cAMP concentration was measured using DiscoverX-XS cAMP kit, following the manufacturer's protocol. In this setting, agonists will decrease forskolin induced production of cAMP while inverse agonists will further increase forskolin induced production of cAMP. EC50 of agonists were calculated as follows. The maximal amount of cAMP produced by forskolin compared to the level of cAMP inhibited by 1 uM CP55940 is defined as 100%. The EC50 value of each test compound was determined as the concentration at which 50% of the forskolin-stimulated cAMP synthesis was inhibited. Data was analyzed using a four-parameter logistic model. (Model 205 of XLfit 4.0).
T1 sequence (P34972 whole entry): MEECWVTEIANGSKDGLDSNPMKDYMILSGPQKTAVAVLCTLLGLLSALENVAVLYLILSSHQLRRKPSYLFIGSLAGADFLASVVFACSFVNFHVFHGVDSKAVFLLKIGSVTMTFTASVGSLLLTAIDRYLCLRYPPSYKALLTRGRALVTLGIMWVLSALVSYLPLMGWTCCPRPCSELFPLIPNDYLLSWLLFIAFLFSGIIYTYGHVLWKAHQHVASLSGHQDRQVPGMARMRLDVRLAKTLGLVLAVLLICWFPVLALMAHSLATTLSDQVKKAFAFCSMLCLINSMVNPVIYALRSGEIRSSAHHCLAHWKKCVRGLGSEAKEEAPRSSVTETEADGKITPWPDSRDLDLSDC
Consider `CN(Cc1ccc(Nc2ccccc2)cc1)C[C@H](O)c1ccccc1` [Example 15, (R)-2-[Methyl-(4-phenylamino-benzyl)-amino]-1-phenyl-ethanol], for which the agonistic activity entry was “agonistic activity”.

For the molecule `CN(Cc1cnc2ccccc2c1)C[C@H](O)c1ccccc1` [Example 20, (R)-2-(Methyl-quinolin-3-ylmethyl-amino)-1-phenyl-ethanol], the agonistic activity entry is on record as “agonistic activity”. The result for `CN(Cc1ccc(Nc2ccccc2)cc1)CC(O)c1ccccc1` (centres unmarked) [Example 2, 2-[methyl-(4-phenylamino-benzyl)-amino]-1-phenyl-ethanol] reads “agonistic activity”. Regarding `CN(Cc1ccc(Nc2ccccc2Cl)nc1)CC(O)c1ccccc1` (centres unmarked) [Example 10, 2-{[6-(2-chloro-phenylamino)-pyridin-3-ylmethyl]-methyl-amino}-1-phenyl-ethanol], the agonistic activity result is listed as “agonistic activity”. The same measure for `Cc1ccc(Cl)c(Nc2ccc(CN(C)CC(O)c3ccccc3)cn2)c1` (centres unmarked) [Example 8, 2-{[6-(2-chloro-5-methyl-phenylamino)-pyridin-3-ylmethyl]-methyl-amino}-1-phenyl-ethanol]: “agonistic activity”; for `CN(Cc1ccc(Oc2ccccc2)nc1)C[C@@H](O)c1ccccc1` [Example 21, (S)-2-[Methyl-(6-phenoxy-pyridin-3-ylmethyl)-amino]-1-phenyl-ethanol]: “agonistic activity”. The same measure for `Cc1ccccc1Nc1ccc(CN(C)CC(O)c2ccccc2)cc1` (centres unmarked) [Example 6, 2-[methyl-4(o-tolylamino-benzyl)-amino]-1-phenyl-ethanol]: “agonistic activity”; for `CN(Cc1ccc(Nc2ccccc2Cl)cc1)CC(O)c1ccccc1` (centres unmarked) [Example 4, 2-{[4-(2-chloro-phenylamino)-benzyl]-methyl-amino}-1-phenyl-ethanol]: “agonistic activity”; for `O[C@H](CNCc1cnc2ccccc2c1)c1ccccc1` [Example 22, (S)-1-Phenyl-2-[(quinolin-3-ylmethyl)-amino]-ethanol]: “agonistic activity”. The result for `Cc1ccc(C)c(Nc2ccc(CN(C)CC(O)c3ccccc3)cc2)c1` (centres unmarked) [Example 1, 2-{[4-(2,5-Dimethyl-phenylamino)-benzyl]-methyl-amino}-1-phenyl-ethanol] reads “agonistic activity”.

Take `Cc1ccc(C)c(Nc2ccc(CN(C)CC(O)c3ccccc3)cn2)c1` (centres unmarked) [Example 7, 2-{[6-(2,5-dimethyl-phenylamino)-pyridin-3-ylmethyl]-methyl-amino}-1-phenyl-ethanol]: the agonistic activity result was “agonistic activity”. The same measure for `Cc1ccc(Cl)cc1Nc1ccc(CN(C)CC(O)c2ccccc2)cn1` (centres unmarked) [Example 9, 2-{[6-(5-chloro-2-methyl-phenylamino)-pyridin-3-ylmethyl]-methyl-amino}-1-phenyl-ethanol]: “agonistic activity”. The result for `CN(Cc1ccc(Nc2ccccc2Cl)cc1)C[C@H](O)c1ccccc1` [Example 5, (R)-2-{[4-(2-chloro-phenylamino)-benzyl]-methyl-amino}-1-phenyl-ethanol] reads “agonistic activity”.

As to `Cc1ccccc1Nc1ccc(CN(C)CC(O)c2ccccc2)cn1` (centres unmarked) [Example 11, 2-[methyl-(6-o-tolylamino-pyridin-3-ylmethyl)-amino]-1-phenyl-ethanol], the agonistic activity entry was “agonistic activity”. The same measure for `Cc1ccc(Cl)c(Nc2ccc(CN(C)CC(O)c3ccccc3)cc2)c1` (centres unmarked) [Example 3, 2-{[4-(2-chloro-5-methyl-phenylamino)-benzyl]-methyl-amino}-1-phenyl-ethanol]: “agonistic activity”. The same measure for `CN(Cc1ccc(S(=O)(=O)c2ccccc2)cc1)C[C@H](O)c1ccccc1` [Example 17, (R)-2-[(4-Benzenesulfonyl-benzyl)-methyl-amino]-1-phenyl-ethanol]: “agonistic activity”; for `CN(Cc1ccc(Oc2ccccc2)cc1)C[C@H](O)c1ccccc1` [Example 19, (R)-2-[Methyl-(4-phenoxy-benzyl)-amino]-1-phenyl-ethanol]: “agonistic activity”.
